Source: patent publication US20040121965A1, “Method of treating resistant tumors” (Wyeth Holdings Corporation, priority 2002, published 2004)
Read-outs that look alike come from different tables or passages of the source.

How the values were obtained:
[1] = system: KB-3-1; test: Cell survival assay (SRB), KB-3-1; assay type: cell-based, human; conditions: Homo sapiens
Summary of the method: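 IC50 for 50% growth inhibition after 3-day compound exposure, tested in duplicate. SRB protein staining of TCA-fixed cells (10% TCA, 1 hr, 4 °C), solubilised in Tris base and read by absorbance, was used as the survival read-out, with KB-3-1 grown in 20% FCS.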

[2] = system: KB-8-5 (MDR1+); test: Cell survival assay (SRB), KB-8-5 (MDR1+); conditions: for IC50: Homo sapiens, MDR1, read-out: In vitro IC50 (nM) KB85
[3] = system: KB-V1 (MDR1++); test: Cell survival assay (SRB), KB-V1 (MDR1++); conditions: for IC50: Homo sapiens
[4] = KB 3-1, KB-3-1 cells (paclitaxel-sensitive parent), read-out: In vitro IC50 (nM) KB-3-1
[5] = read-out: In vitro IC50 (nM) KBV1

Row | SMILES | IC50 [1, 4] | Ratio KB85/KB [2] | IC50 [2] | Ratio KBV1/KB [3] | IC50 [3, 5] | IC50 ([3]; read-out: In vitro IC50 KBV1) | IC50 ([1]; KB 3-1, read-out: In vitro IC50 (nM) KB-3-1)
1 | CCOC(=O)/C(C)=C/[C@H](C(C)C)N(C)C(=O)/C(C)=C/[C@H](C(C)C)N(C)C(=O)[C@@H](NC(=O)[C@@H](NC)C(C)(C)c1ccccc1)C(C)(C)C [Example 113, N,β,β-trimethyl-L-phenylalanyl-N^1-{(1S,2E)-4-[[(1S,2E)-4-ethoxy-1-isopropyl-3-methyl-4-oxobut-2-enyl](methyl)amino]-1-isopropyl-3-methyl-4-oxobut-2-enyl}-N^1,3-dimethyl-L-valinamide] | 18 nM | 1.9 | 34 nM | 32.3 | 582 nM |  | 
2 | CN[C@H](C(=O)N[C@H](C(=O)N(C)[C@H](/C=C(\C)C(=O)OCc1cccs1)C(C)C)C(C)(C)C)C(C)(C)c1ccccc1 [Example 115, N,β,β-trimethyl-L-phenylalanyl-N^1-[(1S,2E)-1-isopropyl-3-methyl-4-oxo-4-(thien-2-ylmethoxy)but-2-enyl]-N^1,3-dimethyl-L-valinamide] | 5 nM | 46.2 | 231 nM |  |  | > 3000 nM | 
3 | CCCCCCCCOC(=O)/C(C)=C/[C@H](C(C)C)N(C)C(=O)[C@@H](NC(=O)[C@@H](NC)C(C)(C)c1ccccc1)C(C)(C)C [Example 116, N,β,β-trimethyl-L-phenylalanyl-N^1-[(1S,2E)-1-isopropyl-3-methyl-4-(octyloxy)-4-oxobut-2-enyl]-N^1,3-dimethyl-L-valinamide] | 150 nM | 10.9 | 1630 nM |  |  | > 3000 nM | 
4 | CN[C@H](C(=O)N[C@H](C(=O)N(C)[C@H](/C=C(/C)C(=O)O)C(C)C)C(C)(C)C)C(C)(C)c1ccccc1 [Example 117, N,β,β-trimethyl-L-phenylalanyl-N^1-[(1S,2Z)-3-carboxy-1-isopropyl-2-butenyl]-N^1,3-dimethyl-L-valinamide] |  | 2.1 | 58 nM | 93.9 | 2630 nM |  | 28 nM
5 | CN[C@H](C(=O)N[C@H](C(=O)N(C)[C@H](/C=C/C(=O)O)C(C)C)C(C)(C)C)C(C)(C)c1ccccc1 [Example 118, N,β,β-trimethyl-L-phenylalanyl-N^1-[(1S,2E)-3-carboxy-1-isopropylprop-2-enyl]-N^1,3-dimethyl-L-valinamide] | 190 nM | 2.5 | 479 nM | 15.7 | ≥ 3000 nM |  | 
6 | C=CC[C@@H](/C=C(\C)C(=O)O)N(C)C(=O)[C@@H](NC(=O)[C@@H](NC)C(C)(C)c1ccccc1)C(C)(C)C [Example 119, N,β,β-trimethyl-L-phenylalanyl-N^1-[(1S,2E)-1-allyl-3-carboxybut-2-enyl]-N^1,3-dimethyl-L-valinamide] | 55 nM | 3.0 | 164 nM |  |  | > 3000 nM | 
7 | C=CC(C)(C)[C@H](NC)C(=O)N[C@H](C(=O)N(C)[C@H](/C=C(\C)C(=O)O)C(C)C)C(C)(C)C [Example 121, (2E, 4S)-4-[((2S)-2-{[3,3-dimethyl-2-(methylamino)-4-pentenoyl]amino}-3,3-dimethylbutanoyl)(methyl)amino]-2,5-dimethyl-2-hexenoic Acid] | 136 nM | 1.4 | 186 nM | 22.0 | ≥ 3000 nM |  | 
8 | CN[C@H](C(=O)N[C@H](C(=O)N(C)[C@H](C[C@H](C)C(=O)O)C(C)C)C(C)(C)C)C(C)(C)c1ccccc1 [Example 123, N,β,β-trimethyl-L-phenylalanyl-N^1-[(1R,3S)-3-carboxy-1-isopropylbutyl]-N^1,3-dimethyl-L-valinamide] | 891 nM | 0.6 | 537 nM |  |  | > 3000 nM | 
9 | CCC(CC)(c1ccccc1)[C@H](NC)C(=O)N[C@H](C(=O)N(C)[C@H](/C=C(\C)C(=O)O)C(C)C)C(C)(C)C [Example 125, β,β-diethyl-N-methyl-L-phenylalanyl-N^1-[(1S,2E)-3-carboxy-1-isopropylbut-2-enyl]-N^1,3-dimethyl-L-valinamide] | 8.5 nM | 2.1 | 18 nM | 56.4 | 479 nM |  | 
10 | CCC(CC)(c1ccccc1)[C@@H](NC)C(=O)N[C@H](C(=O)N(C)[C@H](/C=C(\C)C(=O)O)C(C)C)C(C)(C)C [Example 126, β,β-diethyl-N-methyl-D-phenylalanyl-N^1-[(1S,2E)-3-carboxy-1-isopropylbut-2-enyl]-N^1,3-dimethyl-L-valinamide] | 18 nM | 1.3 | 23 nM | 63.3 | 1140 nM |  | 
11 | C/C(=C\[C@H](C(C)C)N(C)C(=O)[C@@H](NC(=O)[C@@H](N)Cc1cccc2ccccc12)C(C)(C)C)C(=O)O [Example 130, (2E,4S)-4-[((2S)-2-{[(2S)-2-Amino-3-(1-naphthyl)propanoyl]amino}-3,3-dimethylbutanoyl)(methyl)amino]-2,5-dimethyl-2-hexenoic Acid] | 60.2 nM | 1.4 | 87 nM | 49.8 | ≥ 3000 nM |  | 
12 | CN[C@H](C(=O)N[C@@H](C(=O)N(C)[C@H](/C=C(\C)C(=O)O)C(C)C)C(C)C)C(C)(C)c1ccccc1 [Example 131, N,β,β-trimethyl-L-phenylalanyl-N^1-[(1S,2E)-3-carboxy-1-isopropylbut-2-enyl]-N^1-methyl-D-valinamide] | 6 nM | 2.0 | 12 nM | 512.8 | ≥ 3000 nM |  | 
13 | CCOC(=O)/C(C)=C/[C@H](C(C)C)N(C)C(=O)[C@@H](NC(=O)[C@H](NC)C(C)(C)c1ccccc1)C(C)(C)C [Example 135, Ethyl (E,4S)-4-[((2S)-3,3-dimethyl-2-{[(2R)-3-methyl-2-(methylamino)-3-phenylbutanoyl]amino}butanoyl)(methyl)amino]-2,5-dimethyl-2-hexenoate] | 909 nM | 2.3 | 2090 nM | 2.9 | 2640 nM |  | 
14 | CN[C@H](C(=O)N[C@H](C(=O)N(C)[C@H](/C=C(\C)C(=O)O)Cc1ccccc1)C(C)(C)C)C(C)(C)c1ccccc1 [Example 136, (E,4S)-4-[((2S)-3,3-dimethyl-2-{[(2S)-3-methyl-2-(methylamino)-3-phenylbutanoyl]amino}butanoyl)(methyl)amino]-2-methyl-5-phenyl-2-pentenoic Acid] | 479 nM | 2.8 | 1320 nM | 6.3 | ≥ 3000 nM |  | 
15 | CN[C@H](C(=O)N[C@@H](Cc1ccccc1)C(=O)N(C)[C@H](/C=C(\C)C(=O)O)C(C)C)C(C)(C)c1ccccc1 [Example 137, (E,4S)-2,5-dimethyl4-[methyl((2S)-2-{[(2S)-3-methyl-2-(methylamino)-3-phenylbutanoyl]amino}-3-phenylpropanoyl)amino]-2-hexenoic Acid] | 934 nM | 1.7 | 1580 nM | 3.2 | ≥ 3000 nM |  | 
